Test results as given in article PMC11360180, “Enhancement of Antimicrobial Function by L/D-Lysine Substitution on a Novel Broad-Spectrum Antimicrobial Peptide, Phylloseptin-TO2: A Structure-Related Activity Research Study” (Pharmaceutics, 2024).
Where a SMILES comes first, the peptide text is derived from it. Where no end group is shown, it is not given here. [ ]: non-standard residue; d: D form.

Experiments:
S. aureus (ATCC 6538) = assay type: cell-based, Staphylococcus aureus; details: ATCC 6538, 24 h
From the text: (§1) Seven microorganism strains were used to preliminarily evaluate the antimicrobial activity of PSTO2 and its analogues, including Staphylococcus aureus (S. aureus) (ATCC® 6538), methicillin-resistant Staphylococcus aureus (MRSA) (NCTC® 12493), Enterococcus faecalis (E. faecalis) (NCTC® 12697), E. coli (ATCC® 8739), Klebsiella pneumonia (K. pneumonia) (ATCC® 43816), Pseudomonas aeruginosa (P. aeruginosa) (ATCC® CRM 9027), Acinetobacter baumanni (A. baumanni) (BAA® 747), and Candida albicans (C. albicans) (ATCC® 10231). In this study, the strains were cultured in Mueller–Hinton broth (MHB), nutrient broth (NB), and yeast–peptone–dextrose broth (YPD-B) correspondingly at 37 °C, with shaking at 120 rpm. Each peptide was dissolved from 128 μM to 1 μM and mixed with the bacterium at 5 × 10^5 CFU/mL. In this process, bacteria with culture medium were used as the growth control group; PBS was set up as the vehicle control group; sterile culture medium was used as the blank control group; and Norfloxacin at a concentration of 2 mg/mL and amphotericin B at a concentration of 1 mg/mL were set up as the positive control group for bacteria and fungi, respectively.
(§2) After being incubated for 24 h, a Synergy HT plate reader (Bio-Tek, Shoreline, WA, USA) was used to detect the absorbance of each well in the 96-well plate at λ = 550 nm. The concentration at which no visible turbidity could be recorded was the MIC value. Beginning from the MIC value, 10 µL of solution in each clear well was dropped on the sterile agar plates. The plate was checked the next day for colony formation, and the lowest concentration at which no colony growing was recorded as an MBC value.

[1] = tested on: P. aeruginosa (ATCC 9027); assay type: cell-based, Pseudomonas aeruginosa; details: ATCC 9027, 24 h
From the text: as §1, §2

A. baumannii (BAA 747) = assay type: cell-based, Acinetobacter baumanni; details: BAA 747, 24 h
From the text: as §1, §2

[2] = tested on: S. aureus (ATCC 6538) biofilm; assay type: cell-based, Staphylococcus aureus; details: ATCC 6538, 24 h
Procedure: (§3) To test the anti-biofilm ability of PSTO2 and its analogues, three types of microorganisms (S. aureus ATCC® 6538, E. coli ATCC® 8739, and MRSA NCTC® 12493) were chosen. Tryptic soy broth (TSB) and Lysogeny broth (LB) were used to culture microorganisms. The peptide was dissolved in an autoclaved PBS solution and diluted into concentrations ranging from 51,200 µM to 100 µM. One µL of peptide solution of each concentration was added into a 96-well plate with 100 µL bacterium at 5 × 10^5 CFU/mL. The plate was incubated at 37 °C for 24 h, with shaking at 200 rpm. After overnight incubation, the planktonic bacteria were washed up. Then, 100 µL of methanol was used to fix the biofilms onto the bottom, and 100 µL of 0.1% crystal violet solution (Sigma-Aldrich, Gillingham, UK) was added to each well to stain the biofilms. After drying, 160 µL of acetic acid (30% in deionised water, Sigma-Aldrich, UK) was added to each well to dissolve the shaded parts. The absorbance was detected with the Synergy HT plate reader at λ = 595 nm.
(§4) For the MBEC assay, 100 µL of the bacterium of 5 × 10^5 CFU/mL was transferred into an empty 96-well plate, and the plate was incubated at 37 °C for 24 h to obtain the biofilms primarily. Then, the peptide solution from 512 µM to 1 µM was transferred into a corresponding well, followed by 24 h incubation at 37 °C, with shaking at 200 rpm. After this, the plate was handled using the identical method to the plate in the MBIC assay, and the absorbance of each well was detected with the Synergy HT plate reader at λ = 595 nm. The minimum concentration at which the peptide can eradicate the existing biofilm was recorded as the MBEC value.

U251MG = assay type: cell-based, human; details: 24 h
Procedure: (§5) The percentage of cancer cell survival after being treated with peptides was assessed with 3-(4,5-dimethylthiazol-2-yl-)-2,5-diphenyltetrazolium bromide (MTT). The principle is the reduction process of the yellow tetrazolium to DMSO-soluble formazan crystals caused by the metabolic capability of living cells. All the cancerous and normal cells were obtained from the American Type Culture Collection (Rockville, VA, USA). Human lung cancer NCI-H838 and NCI-H460 were cultured in Roswell Park Memorial Institute (RPMI)-1640 medium (Gibco, Paisley, UK) and mixed with 10% (v/v) fetal bovine serum (FBS) (Gibco, Campinas, Brazil) and 1% penicillin–streptomycin (Gibco, Grand Island, NY, USA) 89/10/1 v/v/v). U251MG and MCF-7 were cultured in Dulbecco’s Modified Eagle medium (DMEM) (Gibco, Paisley, UK) and mixed with 10% FBS and 1% penicillin–streptomycin. HCT 116 was cultured in McCoy’s 5A (modified) medium (Gibco, Paisley, UK) and mixed with 10% FBS and 1% penicillin–streptomycin. MRC-5 and HaCat were cultured in Minimum Essential Medium (MEM) (Gibco, Paisley, UK) and mixed with 10% FBS and 1% penicillin–streptomycin. Cells were cultured and seeded in a 96-well plate at a density of 8000 cells/well with the corresponding medium and incubated for 24 h at 37 °C with 5% CO2. After 24 h of incubation, the cells were starved with a serum-free medium for 4 h at 37 °C. Then, the cells were incubated with different concentrations of peptide solution in a serum-free medium from 1 nM to 100 µM at 37 °C for 24 h. Meanwhile, triton X-100 (0.1%) (Sigma-Aldrich, St. Louis, MO, USA) and PBS were chosen as positive and negative controls. After 10 µL of MTT (5 mg/mL) was added to each well away from light and incubated at 37 °C for 2 h, the formazan generated by mitochondria was dissolved with DMSO. The absorbance was detected at a wavelength of 570 nm by a Synergy HT plate reader (Bio-Tek, Shoreline, WA, USA).

MCF-7 = assay type: cell-based, human; details: 24 h
Procedure: as §5

NCI-H460 = assay type: cell-based, human; details: 24 h
Procedure: as §5

NCI-H838 = assay type: cell-based, human; details: 24 h
Procedure: as §5

[3] = tested on: E. coli (ATCC 8739) biofilm; assay type: cell-based, Escherichia coli; details: ATCC 8739, 24 h
Procedure: as §3, §4

C. albicans = assay type: cell-based, Candida albicans; details: 24 h
From the text: as §1, §2

Compound | MBC (S. aureus (ATCC 6538)) | MBC [1] [µM] | MIC [1] [µM] | MBC (A. baumannii (BAA 747)) | MIC (A. baumannii (BAA 747)) | MBEC [2] [µM] | MBIC [2] [µM] | IC50 (U251MG) [µM] | IC50 (MCF-7) [µM] | IC50 (NCI-H460) [µM] | IC50 (NCI-H838) [µM] | MBEC [3] | MBIC [3] | MBC (C. albicans) [µM] | MIC (C. albicans) [µM] | MIC (S. aureus (ATCC 6538)) [µM]
CC[C@H](C)[C@H](NC(=O)[C@H](C)NC(=O)[C@@H](CCCCN)NC(=O)[C@@H]1CCCN1C(=O)[C@@H](NC(=O)[C@H](CC(C)C)NC(=O)[C@H](CO)NC(=O)[C@H](CC(C)C)NC(=O)[C@@H](N)Cc1ccccc1)[C@@H](C)CC)C(=O)N[C@@H](CCCCN)C(=O)N[C@@H](C)C(=O)N[C@H](C(=O)N[C@@H](CCCCN)C(=O)N[C@@H](C)C(=O)N[C@@H](CC(C)C)C(=O)N[C@@H](C)C(=O)N[C@@H](CCCCN)C(=O)N[C@H](CCCCN)C(=O)N[C@@H](CC(C)C)C(N)=O)C(C)C [SR2D10] (H-FLSLIP[dK]AIKAVKALAK[dK]L-NH2) | 1/1 μM | 32 | 32 | 16/16 μM | 16/16 μM | 32 | 4 | 16.1 | 26.4 | 7.7 | 9.49 | 64 µM | 32 µM | 128 | 64 | –
CC[C@H](C)[C@H](NC(=O)[C@H](C)NC(=O)[C@@H](CCCCN)NC(=O)[C@@H]1CCCN1C(=O)[C@@H](NC(=O)[C@H](CC(C)C)NC(=O)[C@H](CO)NC(=O)[C@H](CC(C)C)NC(=O)[C@@H](N)Cc1ccccc1)[C@@H](C)CC)C(=O)N[C@@H](CCCCN)C(=O)N[C@@H](C)C(=O)N[C@H](C(=O)N[C@@H](CO)C(=O)N[C@@H](C)C(=O)N[C@@H](CC(C)C)C(=O)N[C@@H](C)C(=O)N[C@@H](CCCCN)C(=O)N[C@@H](CCCCN)C(=O)N[C@@H](CC(C)C)C(N)=O)C(C)C [SRD7] (H-FLSLIP[dK]AIKAVSALAKKL-NH2) | 1/1 μM | 16 | 16 | 16/16 μM | – | 32 | 2 | 13.9 | 15.2 | 2.31 | 3.32 | 64 µM | 32 µM | 64 | 32 | –
FLSLIPKAIKAVKALAKKL-NH2 [SR2] | 2 µM | 32 | – | 2/2 μM | – | 16 | 2 | 6.72 | 7.83 | 5.92 | 3.13 | 16 µM | 8 µM | 64 | 32 | 2
FLSLIPKAIKAVSALAKKL-NH2 [SR] | 2 µM | 32 | – | 4/4 μM | – | 16 | – | 9.65 | 6.05 | 3.07 | 2.88 | 16/16 μM | 16/16 μM | 128 | 32 | 2
